{
  "source": "paper PMC6553640",
  "about": "(Science signaling, 2018)",
  "molecular_target": "T1, TRIB1 (Homo sapiens, UniProt Q96RU8)",
  "T1 sequence (Q96RU8 84-372)": "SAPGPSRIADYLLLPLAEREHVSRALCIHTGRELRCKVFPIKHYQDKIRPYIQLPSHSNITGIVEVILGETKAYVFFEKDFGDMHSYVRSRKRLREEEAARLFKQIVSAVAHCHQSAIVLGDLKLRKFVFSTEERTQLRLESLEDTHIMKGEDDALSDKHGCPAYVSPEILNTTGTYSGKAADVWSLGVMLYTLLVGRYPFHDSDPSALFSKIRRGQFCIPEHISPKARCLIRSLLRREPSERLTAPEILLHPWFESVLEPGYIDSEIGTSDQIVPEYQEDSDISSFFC",
  "assay": "DSF destabilization",
  "format": "binding",
  "data": [
    {"smiles": "COc1cccc(COc2cc(-n3cnc4ccccc43)sc2C(N)=O)c1", "note": "[GW804482X]", "values": [
      {"measurement": "DSF destabilization", "value": "although like TRIB2, destabilization was evident in the presence of GW804482X (fig. S3C)"}
    ]}
  ]
}
